Data from US20240150715A1 (Sciperio, Inc, priority 2022, published 2024).

How the values were obtained:
Type in all cases: cell-based
[1] = test system: differentiating HSCs in high density culture; assay: Analysis of culture medium: metabolic waste, LDH release, amino acid consumption; settings: ferric citrate compared with transferrin
[2] = test system: RBCs differentiated from HSCs; assay: Enucleation, maturation and morphology of manufactured RBCs (DRAQ5-, CD235a+; leukofiltration; Leishman stain); settings: for concentration of enucleated cells after leukofiltration: FIG. 6B
Text: FIG. 6 illustrates ferric citrate-treated RBCs enucleate at rates similar to transferrin-treated RBCs.

[3] = test system: differentiating hematopoietic stem cells (HSCs); assay: High-density differentiation of HSCs into RBCs: culture density / proliferation; settings: ferric citrate compared with transferrin, FIG. 5A
Text: (B) Secretion of cellular waste compounds ammonia and lactate is equivalent between ferric citrate and transferrin, indicating similar metabolic rates. (C) Rates of lytic cell death are similar between cultures treated with ferric citrate and transferrin, as is indicated by the release of lactate dehydrogenase (LDH). (D) Amino acid consumption is similar between the two conditions, as is represented by the consumption of alanine and other amino acids.
The medium formulation has specifically been designed for the efficient, high density, in vitro manufacture of RBCs from HSCs in bioreactors. It is formulated to optimally supply certain growth factors at elevated concentrations for rapid HSC expansion and mediated erythropoiesis using a bioreactor (FIG. 1). The formulation has been determined experimentally using the average depletion rates of various factors by differentiating HSCs in high-density culture (FIG. 2), and can be employed in the production of manufactured RBCs both in static culture (e.g. culture flasks) and in continually agitated suspension culture (e.g. bioreactors).
The present inventors have experimentally determined that a concentration range between 1 μg/mL and 500 μg/mL is effective in driving directed HSC differentiation through the stages of erythropoiesis in a manner that is equivalent to that of holo-transferrin (FIG. 4).

In the case of `O=C([O-])CC(O)(CC(=O)[O-])C(=O)[O-].[Fe+3]` [ferric citrate, iron (III) citrate], the “secretion of cellular waste compounds ammonia and lactate” value ([1]; FIG. 5B) is reported as “equivalent”, the “amino acid consumption (alanine and other amino acids)” value ([1]; FIG. 5D) is reported as “similar” and the cell morphology ([2]; Leishman stain, ferric citrate compared with transferrin, FIG. 6C) is reported as “morphologically similar”. The “concentration of enucleated cells after leukofiltration” value [2] was 74.8%, the “difference in overall enucleation” value ([2]; ferric citrate versus transferrin, after differentiation in optimized medium, FIG. 6A) was about 4% and the “effect on HSC density and cumulative population doubling” value [3] was “comparable”.

With “transferrin: iron-loaded protein holo-transferrin, traditional iron source in HSC culture media” the “concentration of enucleated cells after leukofiltration” value [2] was 79%.
